Measured values published in patent publication US20040033899A1, “5[(pyrazol-4-yl)carbonyl]benzazolone as herbicide” (priority 2000, published 2004).
Values belong to the compound of their own block, whether it stands above or below them.

How the values were obtained:
STEME = assay: greenhouse post-emergence herbicidal test; format: in vivo, chickweed; conditions: 31.3 or 62.5 g/ha (a.s.)
Source text: (§1) The seeds of the test plants were sown separately for each species. For the post-emergence treatment, the test plants were first grown to a plant height of from 3 to 15 cm, depending on the plant habit, and only then treated with the active compounds which had been suspended or emulsified in water. To this end, the test plants were either sown directly and grown in the same containers, or they were first grown separately as seedlings and transplanted into the test containers a few days prior to treatment. The rate of application for the post-emergence treatment was 31.3, 62.5, 125 and/or 250 g of a.s. (active substance) /ha. Depending on the species, the plants were kept at from 10 to 25° C., or 20-35° C., respectively. The test period extended over 2 to 4 weeks. During this time, the plants were tended, and their response to the individual treatments was evaluated. Evaluation was carried out using a scale of from 0 to 100. 100 means no emergence of the plants, or complete destruction of at least the aerial parts, and 0 means no damage, or normal course of growth. A damage of at least 95% corresponds to very good herbicidal action. The plants used in the greenhouse experiments were of the following species: [table]

THLAR = assay: greenhouse post-emergence herbicidal test; format: in vivo, pennycress; conditions: 31.3 or 62.5 g/ha (a.s.)
Source text: as §1

AMARE = assay: greenhouse post-emergence herbicidal test; format: in vivo, redroot pigweed
Source text: as §1

BRAPL = assay: greenhouse post-emergence herbicidal test; format: in vivo, marmelade grass
Source text: as §1

POLPE = assay: greenhouse post-emergence herbicidal test; format: in vivo, ladysthumb
Source text: as §1

PHBPU = assay: greenhouse post-emergence herbicidal test; format: in vivo, morningglory, common; conditions: 125 or 250 g/ha (a.s.)
Source text: as §1

PAPRH = assay: greenhouse post-emergence herbicidal test; format: in vivo, cornpoppy; conditions: 31.3 or 62.5 g/ha (a.s.)
Source text: as §1

CHEAL = assay: greenhouse post-emergence herbicidal test; format: in vivo, lambsquarters (goosefoot); conditions: 125 or 250 g/ha (a.s.)
Source text: as §1

SETFA = assay: greenhouse post-emergence herbicidal test; format: in vivo, giant foxtail; conditions: 125 or 250 g/ha (a.s.)
Source text: as §1

ECHCG = assay: greenhouse post-emergence herbicidal test; format: in vivo, barnyardgrass; conditions: 125 or 250 g/ha (a.s.)
Source text: as §1

BIDPI = assay: greenhouse post-emergence herbicidal test; format: in vivo, hairy beggarticks; conditions: 125 or 250 g/ha (a.s.)
Source text: as §1

Structure (SMILES): Cc1c(C(=O)c2cnn(C)c2O)ccc2sc(=O)n(C)c12 [Example I-1a.1129, 3,4-dimethyl-5-(5′-hydroxy-1′-methyl-pyrazol-4-yl)carbonyl benzothiazol-2-one]
herbicidal action against STEME (STEME): very good herbicidal action (A damage of at least 95% corresponds to very good herbicidal action) | herbicidal action against THLAR (THLAR): very good herbicidal action (A damage of at least 95% corresponds to very good herbicidal action)

Structure (SMILES): CCCn1c(=O)sc2ccc(C(=O)c3cnn(C)c3O)c(C)c21 [Example 15]
melting point: 135 to 137 °C

Structure (SMILES): CCn1ncc(C(=O)c2ccc3sc(=O)n(CC)c3c2C)c1OCc1ccccc1 [Example I-1h.1131]
herbicidal action against AMARE (AMARE; 125 or 250 g/ha (a.s.)): very good herbicidal action (A damage of at least 95% corresponds to very good herbicidal action) | herbicidal action against BRAPL (BRAPL; 125 or 250 g/ha (a.s.)): very good herbicidal action (A damage of at least 95% corresponds to very good herbicidal action)

Structure (SMILES): Cc1c(C(=O)c2cnn(C(C)C)c2O)ccc2sc(=O)n(C)c12 [Example I-1c.1129, 3,4-dimethyl-5-(5′-hydroxy-1′-isopropylpyrazol-4-yl)carbonylbenzothiazol-2-one]
herbicidal action against POLPE (POLPE; 31.3 or 62.5 g/ha (a.s.)): very good herbicidal action (A damage of at least 95% corresponds to very good herbicidal action) | herbicidal action against AMARE (AMARE; 31.3 or 62.5 g/ha (a.s.)): very good herbicidal action (A damage of at least 95% corresponds to very good herbicidal action)

Structure (SMILES): CCn1c(=O)sc2ccc(C(=O)c3cnn(C(C)(C)C)c3OCc3ccccc3)c(C)c21 [Example I-1y.1131]
herbicidal action against PHBPU (PHBPU): very good herbicidal action (A damage of at least 95% corresponds to very good herbicidal action) | herbicidal action against BRAPL (BRAPL; 125 or 250 g/ha (a.s.)): very good herbicidal action (A damage of at least 95% corresponds to very good herbicidal action)

Structure (SMILES): Cc1c(C(=O)c2cnn(C(C)C)c2O)ccc2sc(=O)n(Cc3ccccc3)c12 [Example 17]
melting point: 142 to 144 °C

Structure (SMILES): CCn1ncc(C(=O)c2ccc3sc(=O)n(CC)c3c2C)c1O [Example I-1b.1131]
herbicidal action against AMARE (AMARE; 125 or 250 g/ha (a.s.)): very good herbicidal action (A damage of at least 95% corresponds to very good herbicidal action) | herbicidal action against BRAPL (BRAPL; 125 or 250 g/ha (a.s.)): very good herbicidal action (A damage of at least 95% corresponds to very good herbicidal action)

Structure (SMILES): CCn1ncc(C(=O)c2ccc3sc(=O)n(C)c3c2C)c1O [Example I-1b.1129, 3,4-dimethyl-5-(5′-hydroxy-1′-ethylpyrazol-4-yl)carbonylbenzothiazol-2-one]
herbicidal action against STEME (STEME): very good herbicidal action (A damage of at least 95% corresponds to very good herbicidal action) | herbicidal action against THLAR (THLAR): very good herbicidal action (A damage of at least 95% corresponds to very good herbicidal action) | herbicidal action against PARPH (PAPRH): very good herbicidal action (A damage of at least 95% corresponds to very good herbicidal action)

Structure (SMILES): CCn1c(=O)sc2ccc(C(=O)c3cnn(C)c3O)c(C)c21 [Example I-1a.1131]
herbicidal action against AMARE (AMARE; 125 or 250 g/ha (a.s.)): very good herbicidal action (A damage of at least 95% corresponds to very good herbicidal action) | herbicidal action against BRAPL (BRAPL; 125 or 250 g/ha (a.s.)): very good herbicidal action (A damage of at least 95% corresponds to very good herbicidal action)

Structure (SMILES): Cc1c(C(=O)c2cnn(C)c2O)ccc2oc(=O)n(C)c12 [Example 6]
melting point: 200 to 203 °C

Structure (SMILES): Cc1c(C(=O)c2cnn(C)c2O)ccc2sc(=O)n(Cc3ccccc3)c12 [Example 16]
melting point: 65 to 71 °C

Structure (SMILES): CCCn1c(=O)oc2ccc(C(=O)c3cnn(C)c3O)c(C)c21 [Example I-1a.4]
herbicidal action against AMARE (AMARE; 125 or 62.5 g/ha (a.s.)): very good herbicidal action (A damage of at least 95% corresponds to very good herbicidal action) | herbicidal action against BRAPL (BRAPL; 125 or 62.5 g/ha (a.s.)): very good herbicidal action (A damage of at least 95% corresponds to very good herbicidal action)

Structure (SMILES): CCn1c(=O)sc2ccc(C(=O)c3cnn(C)c3OCc3ccccc3)c(C)c21 [Example I-1g.1131]
herbicidal action against CHEAL (CHEAL): very good-herbicidal action | herbicidal action against SETFA (SETFA): very good-herbicidal action | herbicidal action against ECHCG (ECHCG): very good-herbicidal action | herbicidal action against AMARE (AMARE; 125 or 250 g/ha (a.s.)): very good-herbicidal action | herbicidal action against BRAPL (BRAPL; 125 or 250 g/ha (a.s.)): very good-herbicidal action

Structure (SMILES): CCn1c(=O)oc2ccc(C(=O)c3cnn(C)c3O)c(C)c21 [Example 8]
melting point: 156 to 157 °C

Structure (SMILES): CCCCn1c(=O)oc2ccc(C(=O)c3cnn(C)c3O)c(C)c21 [Example I-1a.6]
herbicidal action against POLPE (POLPE; 125 or 250 g/ha (a.s.)): very good herbicidal action (A damage of at least 95% corresponds to very good herbicidal action) | herbicidal action against BIDPI (BIDPI): very good herbicidal action (A damage of at least 95% corresponds to very good herbicidal action)

Structure (SMILES): C=CCn1c(=O)sc2ccc(C(=O)c3cnn(C)c3O)c(C)c21 [Example 4]
melting point: 155 to 158 °C

Structure (SMILES): CCn1c(=O)sc2ccc(C(=O)c3cnn(C(C)C)c3O)c(C)c21 [Example I-1c.1131]
herbicidal action against AMARE (AMARE; 125 or 250 g/ha (a.s.)): very good herbicidal action (A damage of at least 95% corresponds to very good herbicidal action) | herbicidal action against BRAPL (BRAPL; 125 or 250 g/ha (a.s.)): very good herbicidal action (A damage of at least 95% corresponds to very good herbicidal action)

Structure (SMILES): C=CCn1c(=O)oc2ccc(C(=O)c3cnn(C)c3O)c(C)c21 [Example 7]
melting point: 127 to 129 °C

Structure (SMILES): CCn1c(=O)sc2ccc(C(=O)c3cnn(C(C)(C)C)c3O)c(C)c21 [Example I-1d.1131]
herbicidal action against AMARE (AMARE; 125 or 250 g/ha (a.s.)): very good herbicidal action (A damage of at least 95% corresponds to very good herbicidal action) | herbicidal action against BRAPL (BRAPL; 125 or 250 g/ha (a.s.)): very good herbicidal action (A damage of at least 95% corresponds to very good herbicidal action)

The remaining lines, values ahead:

melting point: 150 to 151 °C
Structure (SMILES): Cc1c(C(=O)c2cnn(C)c2OCc2ccccc2)ccc2sc(=O)n(Cc3ccccc3)c12 [Example 35]

melting point: 79 to 89 °C
Structure (SMILES): COc1cccc(Cn2c(=O)sc3ccc(C(=O)c4cnn(C)c4O)c(C)c32)c1 [Example 45]

melting point: 105 to 107 °C
Structure (SMILES): CCCCCn1c(=O)sc2ccc(C(=O)c3cnn(C(C)C)c3O)c(C)c21 [Example 39]

melting point: 133 to 134 °C
Structure (SMILES): Cc1c(C(=O)c2cnn(C(C)C)c2OCc2ccccc2)ccc2sc(=O)n(CC3OCCO3)c12 [Example 24]

melting point: 56 to 61 °C
Structure (SMILES): CCCn1c(=O)sc2ccc(C(=O)c3c(C)nn(C)c3O)c(C)c21 [Example 28]

melting point: 150 to 151 °C
Structure (SMILES): Cc1c(C(=O)c2cnn(C)c2O)ccc2oc(=O)n(CC(C)C)c12 [Example 26]

melting point: 153 to 156 °C
Structure (SMILES): Cc1nn(C)c(O)c1C(=O)c1ccc2sc(=O)n(Cc3ccccc3)c2c1C [Example 18]

melting point: 54 to 58 °C
Structure (SMILES): Cc1c(C(=O)c2cnn(C(C)C)c2O)ccc2sc(=O)n(CC3OCCO3)c12 [Example 23]

melting point: 140 to 147 °C
Structure (SMILES): CC#CCn1c(=O)sc2ccc(C(=O)c3cnn(C)c3O)c(C)c21 [Example 20]

melting point: 54 to 60 °C
Structure (SMILES): CC#CCn1c(=O)sc2ccc(C(=O)c3cnn(C(C)C)c3O)c(C)c21 [Example 21]

melting point: 71 to 74 °C
Structure (SMILES): COc1cccc(Cn2c(=O)sc3ccc(C(=O)c4cnn(C(C)C)c4O)c(C)c32)c1 [Example 44]

melting point: 104 to 105 °C
Structure (SMILES): CCCn1c(=O)oc2ccc(C(=O)c3cnn(C(C)C)c3O)c(C)c21 [Example 27]
